1 compound from paper PMC7251123, “CX-5461 activates the DNA damage response and demonstrates therapeutic efficacy in high-grade serous ovarian cancer” (Nature Communications, 2020) can be followed below.

In test [1] the test system is OVCAR3. The test is described as follows: Cell proliferation dose response (IncuCyte ZOOM), 48 h. Format: cell-based. The note with it: Homo sapiens, OVCAR-3; OVCAR3, 48 h; read-out: GI50 (concentration inducing 50% reduction in cell proliferation). How it is done:
(§1) The in vitro effects of CX-5461 on human OVCA cells were evaluated using a panel of 32 established human OVCA cell lines. These cell lines were selected to be representative of a range of histologic OVCA subtypes (Supplementary Table 1). Increasing concentrations (1 nM–10 μM) of CX-5461 were used to assess the concentration of drug that induced a 50% reduction in cell proliferation (GI50) at 48 hours (h). […] There was no statistically significant correlation between TP53 mutation status and sensitivity to CX-5461 (Supplementary Table 1, Fig. 1b). The efficacy of growth inhibition by CX-5461 correlated with a higher rate of basal rDNA transcription in the sensitive compared with the resistant OVCA cell lines (Fig. 1c).
(§2) Fig. 1 Sensitivity of ovarian cancer (OVCA) cell lines to CX-5461. a CX-5461 doses that induce 50% growth inhibition (GI50) at 48 hours. Error bars represent mean ± standard deviation (SD). […]
(§3) For assessing OVCA cells’ sensitivity to CX-5461, dose response curves were generated for each cell line by plating cells in 96-well plates, culturing them for 24 hours and then treating them with either vehicle or increasing concentrations of drug (0, 0.001, 0.003, 0.01, 0.03, 0.1, 0.3, 1, 3, 10 and 30 μM CX-5461) for 48 h. Cell number was assessed using the IncuCyte ZOOM imaging system (Essen BioScience). […] During this time the degree of confluency was measured every 24 h. […]

The test system of test [2] is OV90. The test is described as above. It counts as cell-based. To be noted: Homo sapiens, OV-90; OV90, 48 h; read-out: GI50 (concentration inducing 50% reduction in cell proliferation). How it is done: as §1, §2, §3

As to `Cc1cnc(CNC(=O)c2c(=O)c3ccc(N4CCCN(C)CC4)nc3n3c2sc2ccccc23)cn1` [CX-5461], the GI50 was 12 nM in test [1] and 5170 nM in test [2].
